Our source for the MIC values is ChEMBL document CHEMBL1139786, “Anti-tubercular agents. Part IV: Synthesis and antimycobacterial evaluation of nitroheterocyclic-based 1,2,4-benzothiadiazines” (2007).

≈ marks a conversion by molar mass, not a printed value. A value given as a limit tells only on which side of the number the result lay.

What all share (assay type): functional
One test has as its system Escherichia coli. The test is described as follows: Antibacterial activity against Escherichia coli MTCC 443 by broth dilution method. (In general: Dilution methods test growth across graded concentrations, often in twofold steps.)
For another test, the system named is Bacillus subtilis. The test is described as follows: Antibacterial activity against Bacillus subtilis MTCC 441 by broth dilution method.
Test [1] concerns Mycobacterium tuberculosis. The test is described as follows: Antibacterial activity against Mycobacterium tuberculosis H37Rv by nitrate reductase assay.
In a further test the test system is Staphylococcus aureus. The experiment in a line: Antibacterial activity against Staphylococcus aureus MTCC 96 by broth dilution method.
Another test has as its system Pseudomonas aeruginosa. The experiment in a line: Antibacterial activity against Pseudomonas aeruginosa MTCC 1688 by broth dilution method.

On to `CN1C(NNC(=O)c2ccc([N+](=O)[O-])o2)=NS(=O)(=O)c2cc(Cl)ccc21`, for which the MIC in the test with Escherichia coli was found to be 18.8 µg/mL (≈ 46.9 µM); with Bacillus subtilis it was 18.8 µg/mL (≈ 46.9 µM); in test [1], 4 µg/mL (≈ 10 µM); against Staphylococcus aureus, 37.5 µg/mL (≈ 93.8 µM); against Pseudomonas aeruginosa, 150 µg/mL (≈ 375 µM).
On to `CCN1C(NNC(=O)c2ccc([N+](=O)[O-])o2)=NS(=O)(=O)c2ccccc21`, for which the MIC turned out to be 18.8 µg/mL (≈ 49.4 µM) in the test with Escherichia coli; 18.8 µg/mL (≈ 49.4 µM) in the test on Bacillus subtilis; 32 µg/mL (≈ 84.4 µM) in test [1]; 150 µg/mL (≈ 395 µM) against Staphylococcus aureus; 150 µg/mL (≈ 395 µM) against Pseudomonas aeruginosa.
On to `CN1C(N/N=C\c2ccc([N+](=O)[O-])s2)=NS(=O)(=O)c2ccccc21`, for which the MIC against Escherichia coli was determined as 37.5 µg/mL (≈ 103 µM); against Bacillus subtilis, 18.8 µg/mL (≈ 51.3 µM); in test [1], 8 µg/mL (≈ 21.9 µM); with Staphylococcus aureus, 37.5 µg/mL (≈ 103 µM); in the test on Pseudomonas aeruginosa, 150 µg/mL (≈ 411 µM).
`CCN1C(NNC(=O)c2ccc(-c3ccccc3[N+](=O)[O-])o2)=NS(=O)(=O)c2ccccc21`: the MIC against Escherichia coli is 18.8 µg/mL (≈ 41.2 µM); in the test with Bacillus subtilis it was 18.8 µg/mL (≈ 41.2 µM); in test [1], more than 100 µg/mL; in the test on Staphylococcus aureus, 9.37 µg/mL (≈ 20.6 µM); against Pseudomonas aeruginosa, 150 µg/mL (≈ 329 µM).
Take `CCN1C(NNC(=O)c2ccc(-c3cccc([N+](=O)[O-])c3)o2)=NS(=O)(=O)c2ccccc21`: the MIC was 75 µg/mL (≈ 165 µM) with Escherichia coli; 37.5 µg/mL (≈ 82.3 µM) in the test on Bacillus subtilis; more than 100 µg/mL in test [1]; 75 µg/mL (≈ 165 µM) with Staphylococcus aureus; 150 µg/mL (≈ 329 µM) against Pseudomonas aeruginosa.
`O=[N+]([O-])c1ccc(/C=N\NC2=NS(=O)(=O)c3ccccc3N2c2ccccc2)s1`: the MIC is 18.8 µg/mL (≈ 43.9 µM) in the test on Escherichia coli; 37.5 µg/mL (≈ 87.7 µM) against Bacillus subtilis; 4 µg/mL (≈ 9.36 µM) in test [1]; 37.5 µg/mL (≈ 87.7 µM) against Staphylococcus aureus; 150 µg/mL (≈ 351 µM) against Pseudomonas aeruginosa.
On to `O=C(NNC1=NS(=O)(=O)c2ccccc2N1c1ccccc1)c1ccc(-c2ccccc2[N+](=O)[O-])o1`, for which the MIC in the test on Escherichia coli was 75 µg/mL (≈ 149 µM); in the test on Bacillus subtilis, 37.5 µg/mL (≈ 74.5 µM); in test [1] it was more than 100 µg/mL; against Staphylococcus aureus, 18.8 µg/mL (≈ 37.2 µM); with Pseudomonas aeruginosa, 150 µg/mL (≈ 298 µM).
Taken in the same sequence, the figures for `CCN1C(N/N=C\c2ccc([N+](=O)[O-])s2)=NS(=O)(=O)c2ccccc21` were 18.8 µg/mL (≈ 49.4 µM), 18.8 µg/mL (≈ 49.4 µM), 16 µg/mL (≈ 42.2 µM), 18.8 µg/mL (≈ 49.4 µM) and 150 µg/mL (≈ 395 µM).
`CO[C@H]1/C=C/O[C@@]2(C)Oc3c(C)c(O)c4c(O)c(c(/C=N/N5CCN(C)CC5)c(O)c4c3C2=O)NC(=O)/C(C)=C\C=C\[C@H](C)[C@H](O)[C@@H](C)[C@@H](O)[C@@H](C)[C@H](OC(C)=O)[C@@H]1C` [RIFAMPIN]: it took 0.12 µg/mL (≈ 0.146 µM) to inhibit growth in test [1] (MIC).
`O=[N+]([O-])c1ccc(/C=N\NC2=NS(=O)(=O)c3ccccc3N2c2ccccc2)o1`: the MIC with Escherichia coli turned out to be 37.5 µg/mL (≈ 91.2 µM); against Bacillus subtilis, 37.5 µg/mL (≈ 91.2 µM); in test [1], 1 µg/mL (≈ 2.43 µM); in the test with Staphylococcus aureus it was 75 µg/mL (≈ 182 µM); with Pseudomonas aeruginosa, 150 µg/mL (≈ 365 µM).
As for `O=C(NNC1=NS(=O)(=O)c2ccccc2N1c1ccccc1)c1ccc(-c2cccc([N+](=O)[O-])c2)o1`, the MIC is 18.8 µg/mL (≈ 37.2 µM) against Escherichia coli; 37.5 µg/mL (≈ 74.5 µM) against Bacillus subtilis; more than 100 µg/mL in test [1]; 18.8 µg/mL (≈ 37.2 µM) in the test on Staphylococcus aureus; 150 µg/mL (≈ 298 µM) in the test with Pseudomonas aeruginosa.
Regarding `CN1C(NNC(=O)c2ccc([N+](=O)[O-])o2)=NS(=O)(=O)c2ccccc21`, the MIC against Escherichia coli came out at 18.8 µg/mL (≈ 51.3 µM); in the test on Bacillus subtilis, 18.8 µg/mL (≈ 51.3 µM); in test [1], 32 µg/mL (≈ 87.6 µM); in the test on Staphylococcus aureus, 37.5 µg/mL (≈ 103 µM); against Pseudomonas aeruginosa it was 150 µg/mL (≈ 411 µM).
On to `CN1C(NNC(=O)c2ccc(-c3ccccc3[N+](=O)[O-])o2)=NS(=O)(=O)c2ccccc21`, for which the MIC in the test on Escherichia coli was 37.5 µg/mL (≈ 85 µM); in the test with Bacillus subtilis, 37.5 µg/mL (≈ 85 µM); in test [1], more than 100 µg/mL; against Staphylococcus aureus it was 18.8 µg/mL (≈ 42.5 µM); against Pseudomonas aeruginosa, 75 µg/mL (≈ 170 µM).
Take `CN1C(NNC(=O)c2ccc(-c3ccccc3[N+](=O)[O-])o2)=NS(=O)(=O)c2cc(Cl)ccc21`: the MIC in the test on Escherichia coli was 18.8 µg/mL (≈ 39.4 µM); in the test with Bacillus subtilis, 37.5 µg/mL (≈ 78.8 µM); in test [1], more than 100 µg/mL; against Staphylococcus aureus, 75 µg/mL (≈ 158 µM); in the test on Pseudomonas aeruginosa, 150 µg/mL (≈ 315 µM).
Taken in the same sequence, the figures for `CN1C(NNC(=O)c2ccc(-c3cccc([N+](=O)[O-])c3)o2)=NS(=O)(=O)c2ccccc21` were 18.8 µg/mL (≈ 42.5 µM), 37.5 µg/mL (≈ 85 µM), more than 100 µg/mL, 18.8 µg/mL (≈ 42.5 µM) and 75 µg/mL (≈ 170 µM).
Take `O=C(NNC1=NS(=O)(=O)c2ccccc2N1c1ccccc1)c1ccc([N+](=O)[O-])o1`: the MIC came to 18.8 µg/mL (≈ 43.9 µM) in the test with Escherichia coli; 75 µg/mL (≈ 175 µM) against Bacillus subtilis; 8 µg/mL (≈ 18.7 µM) in test [1]; 37.5 µg/mL (≈ 87.7 µM) in the test with Staphylococcus aureus; 150 µg/mL (≈ 351 µM) in the test with Pseudomonas aeruginosa.
Take `O=C1CN(/N=C/c2ccc([N+](=O)[O-])o2)C(=O)N1` [NITROFURANTOIN]: the minimum inhibitory concentration (MIC) against Escherichia coli is 18.8 µg/mL (≈ 78.7 µM); against Bacillus subtilis it was 18.8 µg/mL (≈ 78.7 µM); with Staphylococcus aureus, 18.8 µg/mL (≈ 78.7 µM); against Pseudomonas aeruginosa, 150 µg/mL (≈ 630 µM).
Turning to `CN1C(N/N=C\c2ccc([N+](=O)[O-])o2)=NS(=O)(=O)c2ccccc21`, the MIC in the test on Escherichia coli was 18.8 µg/mL (≈ 53.7 µM); in the test on Bacillus subtilis, 37.5 µg/mL (≈ 107 µM); in test [1], 8 µg/mL (≈ 22.9 µM); in the test with Staphylococcus aureus, 37.5 µg/mL (≈ 107 µM); against Pseudomonas aeruginosa, 150 µg/mL (≈ 429 µM).
For the compound `CC(C)N1C(N/N=C\c2ccc([N+](=O)[O-])s2)=NS(=O)(=O)c2ccccc21`, the MIC in the test on Escherichia coli is 18.8 µg/mL (≈ 47.7 µM); in the test with Bacillus subtilis, 18.8 µg/mL (≈ 47.7 µM); in test [1], 4 µg/mL (≈ 10.2 µM); with Staphylococcus aureus it was 18.8 µg/mL (≈ 47.7 µM); against Pseudomonas aeruginosa it was 150 µg/mL (≈ 381 µM).
Consider `NNC(=O)c1ccncc1` [ISONIAZID], for which the MIC in test [1] was 0.5 µg/mL (≈ 3.65 µM).
Take `CCN1C(N/N=C\c2ccc([N+](=O)[O-])o2)=NS(=O)(=O)c2ccccc21`: the MIC with Escherichia coli was 18.8 µg/mL (≈ 51.6 µM); against Bacillus subtilis it was 9.37 µg/mL (≈ 25.8 µM); in test [1], 8 µg/mL (≈ 22 µM); against Staphylococcus aureus, 37.5 µg/mL (≈ 103 µM); in the test with Pseudomonas aeruginosa, 150 µg/mL (≈ 413 µM).

A word on the MIC: it is the lowest concentration found to suppress growth. A lower MIC goes with a more susceptible organism.
